In patent US20160051567A1, “PREVENTION AND TREATMENT OF KIDNEY DAMAGE” (METSELEX, INC., priority 2013, published 2016):

Experiments:
caspase-8 = assay: Western blot for active caspase-8 in kidney after AKI; type: in vivo; details: rat kidney after AKI, TUDCA- vs vehicle-treated rats
Description: (§1) Rat model of AKI: All experiments were performed in accordance with the Institutional Animal Care and Use Committee. Six to eight week old Sprague-Dawley rats were anaesthetized by isoflurane gas, a midline abdominal incision was made, and bilateral renal pedicles were clamped for 45 minutes maintaining body temperature at 37° C. After removing the clamps, the abdomen was closed in two layers by using 4-0 absorbable sutures and Reflex 9 mm clips. Blood samples were obtained daily by tail vein puncture. Blood urea levels were measured by the improved Jung method using the QuantiChrom™ Urea Assay Kit as per manufacturer's protocol. Kidneys were harvested five days following surgery.
Administration of TUDCA: 200 mg/mL of TUDCA (Sigma) was dissolved in phosphate buffered saline at pH 7.5. […]
(§2) Protein extraction: Frozen kidney tissue was ground in liquid nitrogen using a pestle and mortar. […] The amount of protein present in the solution was quantified by the Bicinchoninic Acid Protein Assay kit as per manufacturer's protocol.
Western blot analysis: 20 μg of protein was mixed with SDS-PAGE sample buffer, boiled for 5 minutes, electrophoresed on a 12% Tris-HCl SDS-PAGE gel for 1 hour at 200 V, and electroblotted onto a nitrocellulose membrane. […] The immunoblot was detected using SuperSignal West Femto Maximum Sensitivity Substrate Kit. […]

rat model of AKI [1] = assay: Rat model of AKI (warm ischemia reperfusion), blood urea levels; type: in vivo; details: 400 mg/kg/day intraperitoneal
Description: as §1
Administration of TUDCA: 200 mg/mL of TUDCA (Sigma) was dissolved in phosphate buffered saline at pH 7.5. 400 mg/kg of TUDCA or equal volume of vehicle was administered to rats by daily intraperitoneal injection from three days prior to surgery […] to five days (day 5) following surgery. The TUDCA dose was based on previous studies and its solubility at physiological pH.

[2] = tested on: human renal proximal tubular epithelial cells (RPTE); assay: Viability assay (MultiTox-Glo) in RPTE cells; type: cell-based; details: 15 μM to 1200 μM, 24 hours
Description: (§3) Cell culture: RPTE cells were grown in Renal Epithelial Cell Basal Medium (REBM) with full supplements at 37° C. in 5% CO2 incubator as per supplier's instructions. RPTE cells were able to proliferate for 6-8 passages under the culture conditions.
(§4) Viability and Cytotoxicity Assays: Cytotoxicity and viability were determined using MultiTox-Glo Multiplex Cytotoxicity Assay kit as per manufacturer's protocols. RPTE cells were seeded in 96-well culture plates at a density of 1.2×10^4 cells per well. Subsequently, TUDCA was added to the wells to achieve final concentrations of 15, 150, 300, 450, 600, and 1200 μM. Following 24 hours of culture, to determine viability, 50 μL of GF-AFC Reagent was added to each well. The plates were gently shaken and incubated at 37° C. for 30 minutes in the dark. The cell viability was determined by measuring fluorescence at 400 nmEx/505 nmEm. Subsequently, to determine cytotoxicity, 50 μL of AAF-Glo Reagent was added to each well. The plates were shaken gently and incubated at room temperature for 15 minutes in the dark. Cytotoxicity was determined by measuring luminescence as per manufacturer's protocol.

[3] = tested on: human renal proximal tubular epithelial cells (RPTE); assay: Cytotoxicity assay (MultiTox-Glo) in RPTE cells; type: cell-based; details: 24 hours
Description: as §3, §4

cell culture = details: has been shown; cited from earlier work
rat model of AKI [4] = assay: TUNEL assay of kidney sections after AKI; type: in vivo
Description: as §1, with “surgery. […]” for “surgery.”
Histology and TUNEL assay: 4% paraformaldehyde-fixed, paraffin-embedded 5 μm kidney sections were stained with Periodic acid-Schiff (PAS) stain using standard methods. […] Histological injury was scored based on the percentage of tubular cell necrosis, dilation, and cell detachment as per the PAS protocol. […] Apoptotic cells were detected by TUNEL assay using an APO-DIRECT™ kit as per manufacturer's protocol. The average injury score and percentage of TUNEL-positive cells from the renal cortex (superficial and deep), medulla (outer and inner), and papilla were counted and calculated separately and averaged to obtain the total score. […]

caspase-3 = assay: Caspase-3 activity assay in RPTE cells after cryopreservation injury; type: cell-based, human; details: 150-600 μM, dose-dependent, p<0.05
Description: as §3
Cryopreservation injury: We have utilized a published cell culture model of cryopreservation injury. In brief, RPTE cells were grown to 80% confluence in the complete medium containing TUDCA or vehicle. The complete medium was then replaced with University of Wisconsin solution containing TUDCA or vehicle. The culture plates were subsequently incubated in a temperature-regulated refrigerator at 4° C. for 48 hours. […]
as §2
Caspase-3 activity assay: The caspase-3 activity in kidney and RPTE extracts was quantified using Apo-One® Homogeneous Caspase-3/7 Assay kit as per the manufacturer's protocol. […] Fluorescence was measured by Spectramax M12 fluorescent plate reader (Molecular Devices) using wavelengths of 485 nmEx/520 nmEm. […]

C[C@H](CCC(=O)NCCS(=O)(=O)O)[C@H]1CC[C@H]2[C@@H]3[C@@H](O)C[C@@H]4C[C@H](O)CC[C@]4(C)[C@H]3CC[C@]12C [TUDCA, tauroursodeoxycholic acid]
activation of caspase-8 (death-receptor pathway) (caspase-8): no significant difference
elevation in blood urea levels vs vehicle group (rat model of AKI [1]; days 1 (p<0.001) and 2 (p<0.01) following AKI): significantly less elevation in blood urea levels
blood urea vs vehicle group (rat model of AKI [1]; days 3-5 following AKI): blood urea was lower in the TUDCA-treated rats, the difference was not statistically significant
cell viability [2]: None of the tested concentrations of TUDCA decreased cell viability
cytotoxicity ([3]; 1200 μM, p<0.05): cytotoxic
cytotoxicity ([3]; 15 to 600 μM): did not cause cytotoxicity
safe concentrations in cell culture experiments (cell culture): safe in concentrations ranging from 100 nM up to 5 mM
TUNEL-positive cells vs vehicle-treated rats (rat model of AKI [4]; outer strip of the outer medulla, p<0.001): significantly less TUNEL-positive cells
TUNEL-positive cells vs vehicle-treated rats (rat model of AKI [4]; superficial and deep cortices, p<0.05): significantly less TUNEL-positive cells
caspase-3 activation after cryopreservation injury (caspase-3): significantly inhibited
